Results as given in PubChem BioAssay AID248 (DTP/NCI, 2004).
Values joined by “and” are separate entries in the source; they are usually repeats but may differ in a detail not shown here. Identical values can stand only once. Toxic doses and inconclusive results are not listed. No stated cut-off is given here; in the data, active means T/C of 150% or more; inactive means T/C below 125%.

System: L1210 leukemia ip in BDF1 mice, survival T/C
Experiment: NCI In Vivo Anticancer Drug Screen. Data for tumor model L1210 Leukemia (intraperitoneal) in B6D2F1 (BDF1) mice
Conditions: endpoint: mean survival time, higher = longer survival
Method in brief: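 Each compound was tested against a transplantable tumor grown in mice. The endpoint was survival, with treated animals benchmarked against vehicle controls as a simple ratio.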

[1] = dose: 100.0 mg/kg/injection, schedule: Q04DX002 (ip), vehicle: Klucel (hydroxypropylcellulose) (HPC)
[2] = dose: 200.0 mg/kg/injection, schedule: Q04DX002 (ip), vehicle: Klucel (hydroxypropylcellulose) (HPC)
[3] = dose: 400.0 mg/kg/injection, schedule: Q04DX002 (ip), vehicle: Klucel (hydroxypropylcellulose) (HPC)
[4] = dose: 100.0 mg/kg/injection, schedule: Q01DX001 (ip), vehicle: carboxymethylcellulose (CMC)
[5] = dose: 200.0 mg/kg/injection, schedule: Q01DX001 (ip), vehicle: carboxymethylcellulose (CMC)
[6] = dose: 400.0 mg/kg/injection, schedule: Q01DX001 (ip), vehicle: carboxymethylcellulose (CMC)
[7] = dose: 100.0 mg/kg/injection, schedule: Q04DX003 (ip), vehicle: saline
[8] = dose: 200.0 mg/kg/injection, schedule: Q04DX003 (ip), vehicle: saline
[9] = dose: 400.0 mg/kg/injection, schedule: Q04DX003 (ip), vehicle: saline
[10] = dose: 100.0 mg/kg/injection, schedule: Q04DX003 (ip), vehicle: Klucel (hydroxypropylcellulose) (HPC)
[11] = dose: 200.0 mg/kg/injection, schedule: Q04DX003 (ip), vehicle: Klucel (hydroxypropylcellulose) (HPC)
[12] = dose: 400.0 mg/kg/injection, schedule: Q04DX003 (ip), vehicle: Klucel (hydroxypropylcellulose) (HPC)
[13] = dose: 100.0 mg/kg/injection, schedule: Q04DX002 (ip), vehicle: saline
[14] = dose: 200.0 mg/kg/injection, schedule: Q04DX002 (ip), vehicle: saline
[15] = dose: 400.0 mg/kg/injection, schedule: Q04DX002 (ip), vehicle: saline
[16] = dose: 100.0 mg/kg/injection, schedule: Q04DX002 (ip), vehicle: saline with Tween-80
[17] = dose: 200.0 mg/kg/injection, schedule: Q04DX002 (ip), vehicle: saline with Tween-80
[18] = dose: 100.0 mg/kg/injection, schedule: Q01DX001 (ip), vehicle: Klucel (hydroxypropylcellulose) (HPC)
[19] = dose: 200.0 mg/kg/injection, schedule: Q01DX001 (ip), vehicle: Klucel (hydroxypropylcellulose) (HPC)
[20] = dose: 100.0 mg/kg/injection, schedule: Q01DX001 (ip), vehicle: saline
[21] = dose: 400.0 mg/kg/injection, schedule: Q01DX001 (ip), vehicle: saline

Measured: T/C

ClC1C2CC3C1C3C2C(Cl)(Cl)Cl (stereo not given)
inactive: [1] 103 % of control | [2] 100 % of control | [3] 90 % of control

CCSCCC(N)C(=O)O (stereo not given)
inactive: dose: 10.25 mg/kg/injection, schedule: Q01DX Z (ip), vehicle: carboxymethylcellulose (CMC) 97 % of control | dose: 18.75 mg/kg/injection, schedule: Q01DX Z (ip), vehicle: carboxymethylcellulose (CMC) 91 % of control | dose: 20.5 mg/kg/injection, schedule: Q01DX Z (ip), vehicle: carboxymethylcellulose (CMC) 113 % of control | dose: 37.5 mg/kg/injection, schedule: Q01DX Z (ip), vehicle: carboxymethylcellulose (CMC) 93 % of control | dose: 41.0 mg/kg/injection, schedule: Q01DX Z (ip), vehicle: carboxymethylcellulose (CMC) 103 % of control | dose: 75.0 mg/kg/injection, schedule: Q01DX Z (ip), vehicle: carboxymethylcellulose (CMC) 96 % of control | dose: 82.0 mg/kg/injection, schedule: Q01DX Z (ip), vehicle: carboxymethylcellulose (CMC) 103 % of control | [4] 102 % of control | dose: 150.0 mg/kg/injection, schedule: Q01DX Z (ip), vehicle: carboxymethylcellulose (CMC) 100 % of control | [5] 107 % of control | [6] 95 % of control

CC(=NCc1ccccc1)C(C)(O)c1ccccc1 (stereo not given)
inactive: dose: 100.0 mg/kg/injection, schedule: Q01DX009 (ip), vehicle: other 105 % of control | dose: 100.0 mg/kg/injection, schedule: Q04DX003 (ip), vehicle: other 97 % of control | [7] 97 % of control | dose: 200.0 mg/kg/injection, schedule: Q01DX009 (ip), vehicle: other 107 % of control | dose: 200.0 mg/kg/injection, schedule: Q04DX003 (ip), vehicle: other 90 % of control | [8] 103 % of control | dose: 400.0 mg/kg/injection, schedule: Q01DX009 (ip), vehicle: other 100 % of control | dose: 400.0 mg/kg/injection, schedule: Q04DX003 (ip), vehicle: other 95 % of control | [9] 95 % of control

c1cc(N2CCOCC2)cc(NC2CCCCC2)n1
inactive: dose: 5.0 mg/kg/injection, schedule: Q01DX001 (ip), vehicle: saline 95 % of control | dose: 10.0 mg/kg/injection, schedule: Q01DX001 (ip), vehicle: saline 104 % of control | dose: 20.0 mg/kg/injection, schedule: Q01DX001 (ip), vehicle: saline 97 % of control | dose: 40.0 mg/kg/injection, schedule: Q01DX001 (ip), vehicle: saline 103 % of control | dose: 80.0 mg/kg/injection, schedule: Q01DX001 (ip), vehicle: saline 98 % of control

CCOC(=O)c1cnc(SC)nc1Nc1cccc(Cl)c1Cl
inactive: [10] 100 % of control | [11] 95 % of control | [12] 94 % of control

O=C(N/N=C/c1ccc(-c2ccccc2)cc1)Nc1ccccc1
inactive: dose: 100.0 mg/kg/injection, schedule: Q01DX009 (ip), vehicle: saline with Tween-80 92 % of control | dose: 100.0 mg/kg/injection, schedule: Q04DX003 (ip), vehicle: saline with Tween-80 92 % of control | dose: 200.0 mg/kg/injection, schedule: Q01DX009 (ip), vehicle: saline with Tween-80 96 % of control | dose: 200.0 mg/kg/injection, schedule: Q04DX003 (ip), vehicle: saline with Tween-80 100 % of control | dose: 400.0 mg/kg/injection, schedule: Q04DX003 (ip), vehicle: saline with Tween-80 93 % of control

COC1OC2COCOC2C(O)C1O (stereo not given)
inactive: dose: 25.0 mg/kg/injection, schedule: Q04DX002 (ip), vehicle: saline 93 % of control and 104 % of control | dose: 50.0 mg/kg/injection, schedule: Q04DX002 (ip), vehicle: saline 108 % of control | [13] 100 % of control [middle of 4 runs] | [14] 106 % of control and 100 % of control | [15] 103 % of control and 100 % of control

O=[N+]([O-])c1ccc2cnn(CCCl)c2c1
inactive: [4] 94 % of control | [5] 100 % of control | [6] 108 % of control

C[N+](C)(C)CCOC(=O)c1ccccc1CCl
inactive: [16] 98 % of control | [17] 102 % of control

CCCCNN
inactive: dose: 75.0 mg/kg/injection, schedule: Q01DX001 (ip), vehicle: other 96 % of control | dose: 150.0 mg/kg/injection, schedule: Q01DX001 (ip), vehicle: other 113 % of control

O=C1OC(=O)C2C(c3ccccc3)C=C(Cl)C(CCCl)C12 (stereo not given)
inactive: [18] 101 % of control | [19] 97 % of control | dose: 400.0 mg/kg/injection, schedule: Q01DX001 (ip), vehicle: Klucel (hydroxypropylcellulose) (HPC) 95 % of control

CCOP(=O)(OCCBr)C(c1ccccc1)(c1ccccc1)c1ccccc1 (stereo not given)
inactive: [1] 89 % of control | [2] 92 % of control | [3] 92 % of control

NC(=O)c1cc(=O)n(C2OC(CO)C(O)C2O)c2ncnc(N)c12 (stereo not given)
inactive: dose: 12.5 mg/kg/injection, schedule: Q01DX005 (ip), vehicle: water 104 % of control | dose: 25.0 mg/kg/injection, schedule: Q01DX005 (ip), vehicle: water 90 % of control | dose: 50.0 mg/kg/injection, schedule: Q01DX005 (ip), vehicle: water 95 % of control | dose: 100.0 mg/kg/injection, schedule: Q01DX005 (ip), vehicle: water 98 % of control | dose: 200.0 mg/kg/injection, schedule: Q01DX005 (ip), vehicle: water 95 % of control

Cc1ccc2nc[nH]c(=O)c2c1
inactive: [1] 106 % of control | [2] 103 % of control | [3] 103 % of control

COC(=O)C1=C(\N2CCOCC2)CCCC/C=C\1C(=O)OC
inactive: [4] 108 % of control | [5] 105 % of control | [6] 102 % of control

CC1CC(C)(C)N=C(CCCO)O1 (stereo not given)
inactive: dose: 50.0 mg/kg/injection, schedule: Q04DX002 (ip), vehicle: saline with Tween-80 104 % of control | [16] 96 % of control | [17] 104 % of control | dose: 400.0 mg/kg/injection, schedule: Q04DX002 (ip), vehicle: saline with Tween-80 100 % of control

CCOC(=O)/C(=C\c1ccccc1)C(C)=O
inactive: [10] 101 % of control | [11] 92 % of control | [12] 104 % of control

O=C(NCCCCCCNC(=O)NCCN1CCOCC1)NCCN1CCOCC1
inactive: [1] 94 % of control | [2] 105 % of control | [3] 97 % of control

Cc1nc(N)c2nc(-c3ccc(N(CCO)CCO)cc3)c(N)nc2n1
inactive: [20] 98 % of control | dose: 200.0 mg/kg/injection, schedule: Q01DX001 (ip), vehicle: saline 95 % of control | [21] 89 % of control

CCOC(=O)/C=C/c1nc(N)[nH]c(=O)c1CCCCc1ccccc1
inactive: dose: 50.0 mg/kg/injection, schedule: Q01DX001 (ip), vehicle: Klucel (hydroxypropylcellulose) (HPC) 122 % of control | [18] 119 % of control | [19] 111 % of control

CC(C)(C=O)C(=O)Nc1ccccc1
inactive: [13] 103 % of control | [14] 106 % of control | [15] 103 % of control

O=C(O)C1C2C=CC(C2)C1C(=O)O.[Cu+2] (stereo not given)
inactive: dose: 3.12 mg/kg/injection, schedule: Q01DX009 (ip), vehicle: Klucel (hydroxypropylcellulose) (HPC) 95 % of control | dose: 6.25 mg/kg/injection, schedule: Q01DX009 (ip), vehicle: Klucel (hydroxypropylcellulose) (HPC) 96 % of control | dose: 12.5 mg/kg/injection, schedule: Q01DX009 (ip), vehicle: Klucel (hydroxypropylcellulose) (HPC) 101 % of control | dose: 12.5 mg/kg/injection, schedule: Q04DX003 (ip), vehicle: Klucel (hydroxypropylcellulose) (HPC) 103 % of control | dose: 18.0 mg/kg/injection, schedule: Q01DX009 (ip), vehicle: Klucel (hydroxypropylcellulose) (HPC) 101 % of control | dose: 28.0 mg/kg/injection, schedule: Q01DX009 (ip), vehicle: Klucel (hydroxypropylcellulose) (HPC) 93 % of control

O=C(O)CNCc1cc(=O)[nH]c(=O)[nH]1
inactive: [7] 94 % of control | [8] 97 % of control | [9] 105 % of control

Oc1c(Br)cc(Br)cc1/C=N/N1CCN(/N=C/c2cc(Br)cc(Br)c2O)CC1
inactive: [20] 87 % of control | [21] 90 % of control
